Experimental data taken from ChEMBL document CHEMBL1201862, “PubChem BioAssay data set” (2004).
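Results reflect a 48-hour exposure of cells in 96-well plates to compound at five concentrations. GI50 marks 50% less growth.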 Activity calls are given as the source filed them. Rule as the data show it: active = GI50 up to about 1.1 µM and inactive = higher. *1 amine or outer side, *2 acyl side, *3 side chain or, on linkers, in order; H or OH if unused. Where a SMILES comes first, the peptide text is derived from it. Bridges are numbered along the chain shown (N, C = ends). Roman numbers before positions name the chains, in order. [ ]: non-standard residue; d: D form. Actinocin(9to1) = Cc1c2oc3c(C)ccc(C(=O)[*:1])c3nc-2c(C(=O)[*:2])c(N)c1=O; NMeV = CN[CH](C(=O)O)C(C)C; Sar = CNCC(=O)O

Legend:
Assay in all cases: DTP human tumour cell line panel, 48 h
ACHN = system: ACHN
CAKI-1 = system: CAKI-1
COLO 205 = system: COLO 205
EKVX = system: EKVX
HCT-15 = system: HCT-15
HOP-92 = system: HOP-92
IGROV-1 = system: IGROV-1
KM12 = system: KM12
M14 = system: M14
NCI-H226 = system: NCI-H226
NCI-H23 = system: NCI-H23
OVCAR-8 = system: OVCAR-8
SK-OV-3 = system: SK-OV-3
SNB-19 = system: SNB-19
TK-10 = system: TK-10
U-251 = system: U-251
UACC-62 = system: UACC-62
UO-31 = system: UO-31
HOP-62 = system: HOP-62
NCI/ADR-RES = system: NCI/ADR-RES

Structure (SMILES) | GI50 (ACHN) | GI50 (CAKI-1) | GI50 (COLO 205) | GI50 (EKVX) | GI50 (HCT-15) [µM] | GI50 (HOP-92) | GI50 (IGROV-1) | GI50 (KM12) | GI50 (M14) | GI50 (NCI-H226) | GI50 (NCI-H23) | GI50 (OVCAR-8) | GI50 (SK-OV-3) | GI50 (SNB-19) | GI50 (TK-10) | GI50 (U-251) | GI50 (UACC-62) | GI50 (UO-31) | GI50 (HOP-62) | GI50 (NCI/ADR-RES)
COC(=O)C1CCC(=O)C(Sc2ccccc2)C1 (centres undefined) | > 100 µM (inactive) | > 100 µM (inactive) | > 100 µM (inactive) | > 100 µM (inactive) | > 100 | 50.1 µM (inactive) | 51.6 µM (inactive) | > 100 µM (inactive) | > 100 µM (inactive) | > 100 µM (inactive) | > 100 µM (inactive) | > 100 µM (inactive) | > 100 µM (inactive) | > 100 µM (inactive) | > 100 µM (inactive) | > 100 µM (inactive) | 80.7 µM (inactive) | 21.2 µM (inactive) | – | –
OC1(CCc2ccccc2)COC(C(F)(F)F)(C(F)(F)F)C1 (centres undefined) | > 100 µM (inactive) | > 100 µM (inactive) | > 100 µM (inactive) | > 100 µM (inactive) | > 100 | – | > 100 µM (inactive) | > 100 µM (inactive) | > 100 µM (inactive) | > 100 µM (inactive) | > 100 µM (inactive) | > 100 µM (inactive) | > 100 µM (inactive) | > 100 µM (inactive) | > 100 µM (inactive) | > 100 µM (inactive) | > 100 µM (inactive) | > 100 µM (inactive) | > 100 µM (inactive) | > 100 µM (inactive)
CO/C(=N\N=Cc1ccccc1)c1ccncc1 | > 100 µM (inactive) | > 100 µM (inactive) | > 100 µM (inactive) | > 100 µM (inactive) | > 100 | > 100 µM (inactive) | > 100 µM (inactive) | > 100 µM (inactive) | > 100 µM (inactive) | 12.6 µM (inactive) | > 100 µM (inactive) | > 100 µM (inactive) | > 100 µM (inactive) | > 100 µM (inactive) | > 100 µM (inactive) | > 100 µM (inactive) | > 100 µM (inactive) | 47.2 µM (inactive) | > 100 µM (inactive) | –
Clc1ccc(OC2CCO2)cc1Cl (centres undefined) | 49.7 µM (inactive) | 53.1 µM (inactive) | 90.8 µM (inactive) | > 100 µM (inactive) | 15.7 | 46.3 µM (inactive) | > 100 µM (inactive) | 76.6 µM (inactive) | > 100 µM (inactive) | 52.8 µM (inactive) | 83.8 µM (inactive) | 96.2 µM (inactive) | > 100 µM (inactive) | > 100 µM (inactive) | 87.7 µM (inactive) | 88.3 µM (inactive) | 72.6 µM (inactive) | 62.4 µM (inactive) | 78.9 µM (inactive) | –
COc1ccc2c(c1)-c1oc3ccccc3c(=O)c1CO2 | 28.1 µM (inactive) | 20.8 µM (inactive) | 31.4 µM (inactive) | 25 µM (inactive) | 24.9 | – | 25.7 µM (inactive) | 39.5 µM (inactive) | 57.7 µM (inactive) | 50.4 µM (inactive) | 89.5 µM (inactive) | 39.1 µM (inactive) | 35.4 µM (inactive) | – | 45.2 µM (inactive) | 28.7 µM (inactive) | 38.1 µM (inactive) | 22.9 µM (inactive) | 57.4 µM (inactive) | 29.4 µM (inactive)
COC1OC2COC1(OC)C1OC(C)(C)OC21 (centres undefined) | > 100 µM (inactive) | > 100 µM (inactive) | > 100 µM (inactive) | > 100 µM (inactive) | > 100 | – | > 100 µM (inactive) | > 100 µM (inactive) | > 100 µM (inactive) | > 100 µM (inactive) | > 100 µM (inactive) | > 100 µM (inactive) | > 100 µM (inactive) | > 100 µM (inactive) | > 100 µM (inactive) | > 100 µM (inactive) | > 100 µM (inactive) | > 100 µM (inactive) | > 100 µM (inactive) | > 100 µM (inactive)
NN=C(S)Nc1cccc(Cl)c1 | > 100 µM (inactive) | > 100 µM (inactive) | 89.7 µM (inactive) | > 100 µM (inactive) | 48.2 | – | > 100 µM (inactive) | 82 µM (inactive) | 88.7 µM (inactive) | – | > 100 µM (inactive) | 81.5 µM (inactive) | > 100 µM (inactive) | > 100 µM (inactive) | > 100 µM (inactive) | > 100 µM (inactive) | > 100 µM (inactive) | > 100 µM (inactive) | > 100 µM (inactive) | 53.5 µM (inactive)
Cc1c2oc3c(C)ccc(C(=O)NC4C(=O)NC(C(C)O)C(=O)N5CCCC5C(=O)N(C)CC(=O)N(C)C(C(C)C)C(=O)OC4C)c3nc-2c(C(=O)NC2C(=O)NC(C(C)O)C(=O)N3CCCC3C(=O)N(C)CC(=O)N(C)C(C(C)C)C(=O)OC2C)c(N)c1=O (centres undefined) (I: TTP[Sar][NMeV] / II: TTP[Sar][NMeV]; ester I:1-I:C, II:1-II:C; linker I:N-II:N via Actinocin(9to1); configuration not given here) | 0.427 µM (active) | 4.07 µM (inactive) | 0.0528 µM (active) | – | 7.48 | – | 0.135 µM (active) | 0.185 µM (active) | 0.811 µM (active) | 0.0344 µM (active) | 0.274 µM (active) | 0.195 µM (active) | 2.21 µM (inactive) | 0.147 µM (active) | 0.643 µM (active) | 0.0904 µM (active) | 0.103 µM (active) | 2 µM (inactive) | 0.498 µM (active) | > 100 µM (inactive)
CCCCCCC1NN(C(C)=O)C(CCCCCC)NN1C(C)=O (centres undefined) | > 100 µM (inactive) | > 100 µM (inactive) | > 100 µM (inactive) | > 100 µM (inactive) | > 100 | > 100 µM (inactive) | > 100 µM (inactive) | > 100 µM (inactive) | > 100 µM (inactive) | > 100 µM (inactive) | > 100 µM (inactive) | > 100 µM (inactive) | > 100 µM (inactive) | > 100 µM (inactive) | > 100 µM (inactive) | > 100 µM (inactive) | > 100 µM (inactive) | > 100 µM (inactive) | > 100 µM (inactive) | –
COc1cc2c(cc1OC)C(=O)N(NC1=NCCN1)C2=O | > 100 µM (inactive) | > 100 µM (inactive) | > 100 µM (inactive) | > 100 µM (inactive) | > 100 | – | > 100 µM (inactive) | > 100 µM (inactive) | > 100 µM (inactive) | > 100 µM (inactive) | > 100 µM (inactive) | > 100 µM (inactive) | > 100 µM (inactive) | > 100 µM (inactive) | > 100 µM (inactive) | > 100 µM (inactive) | > 100 µM (inactive) | – | > 100 µM (inactive) | > 100 µM (inactive)
COc1ccc2c(c1)OC[C@@H]1c3cc(O)c(OCc4ccccc4)cc3O[C@H]21 | 22.9 µM (inactive) | 24.1 µM (inactive) | 27.9 µM (inactive) | 19.4 µM (inactive) | 22 | 14.8 µM (inactive) | 26.5 µM (inactive) | 30.2 µM (inactive) | 27.9 µM (inactive) | 27.3 µM (inactive) | 16.4 µM (inactive) | 29.5 µM (inactive) | 17.3 µM (inactive) | 46.8 µM (inactive) | 32.7 µM (inactive) | 23.7 µM (inactive) | 18.1 µM (inactive) | 20.1 µM (inactive) | 48 µM (inactive) | –
CC1(C)OC2OC(COC(=O)C(c3ccccc3)c3ccccc3)C3OC(C)(C)OC3C2O1 (centres undefined) | 29.7 µM (inactive) | > 10 µM (inactive) | 31 µM (inactive) | > 10 µM (inactive) | 6.73 | 61.8 µM (inactive) | > 10 µM (inactive) | 5.87 µM (inactive) | 93.1 µM (inactive) | > 10 µM (inactive) | 20.1 µM (inactive) | 53 µM (inactive) | > 10 µM (inactive) | 66.7 µM (inactive) | > 10 µM (inactive) | > 10 µM (inactive) | 9.27 µM (inactive) | 35.5 µM (inactive) | > 10 µM (inactive) | –
CCNC(=S)N/N=C/c1ccccn1 | 5.69 µM (inactive) | – | 3.24 µM (inactive) | 4.54 µM (inactive) | 6.64 | – | 5.11 µM (inactive) | 8.67 µM (inactive) | 9.4 µM (inactive) | 3.83 µM (inactive) | 6.56 µM (inactive) | 3.3 µM (inactive) | 5.07 µM (inactive) | 19.6 µM (inactive) | 25.2 µM (inactive) | 6.55 µM (inactive) | 9.98 µM (inactive) | 2.44 µM (inactive) | 6.12 µM (inactive) | 6.95 µM (inactive)
CC(C)[C@H]1CO[C@@H]2O[C@H](C)CC(=O)N21 | > 100 µM (inactive) | > 100 µM (inactive) | > 100 µM (inactive) | > 100 µM (inactive) | > 100 | > 100 µM (inactive) | > 100 µM (inactive) | > 100 µM (inactive) | > 100 µM (inactive) | > 100 µM (inactive) | > 100 µM (inactive) | > 100 µM (inactive) | > 100 µM (inactive) | > 100 µM (inactive) | > 100 µM (inactive) | > 100 µM (inactive) | > 100 µM (inactive) | > 100 µM (inactive) | > 100 µM (inactive) | –
Cc1ccc(S(=O)(=O)OCCOCCOCCOCCOCCOS(=O)(=O)c2ccc(C)cc2)cc1 | 36.6 µM (inactive) | 47.1 µM (inactive) | 17.2 µM (inactive) | 94.2 µM (inactive) | 55.6 | 35.7 µM (inactive) | 79.8 µM (inactive) | 55.7 µM (inactive) | 45.1 µM (inactive) | 33.5 µM (inactive) | 21.3 µM (inactive) | 22.6 µM (inactive) | > 100 µM (inactive) | > 100 µM (inactive) | 36.7 µM (inactive) | 58.3 µM (inactive) | 61.4 µM (inactive) | 28.8 µM (inactive) | 30.1 µM (inactive) | –
